Laboratory results reported in paper PMC10818600, “In Silico Design, Synthesis, and Evaluation of Novel Enantiopure Isoxazolidines as Promising Dual Inhibitors of α-Amylase and α-Glucosidase” (Molecules, 2024).
Several values for one entry are separate records, joined by “and”; a condition that tells them apart may be missing. Identical values can stand only once.

Legend:
Type in all cases: biochemical
α-amylase = molecular target: T1, α-amylase (Homo sapiens, UniProt P04746); assay: enzyme kinetic study, mode of α-amylase inhibition (Lineweaver–Burk)
T1 sequence (P04746 16-511): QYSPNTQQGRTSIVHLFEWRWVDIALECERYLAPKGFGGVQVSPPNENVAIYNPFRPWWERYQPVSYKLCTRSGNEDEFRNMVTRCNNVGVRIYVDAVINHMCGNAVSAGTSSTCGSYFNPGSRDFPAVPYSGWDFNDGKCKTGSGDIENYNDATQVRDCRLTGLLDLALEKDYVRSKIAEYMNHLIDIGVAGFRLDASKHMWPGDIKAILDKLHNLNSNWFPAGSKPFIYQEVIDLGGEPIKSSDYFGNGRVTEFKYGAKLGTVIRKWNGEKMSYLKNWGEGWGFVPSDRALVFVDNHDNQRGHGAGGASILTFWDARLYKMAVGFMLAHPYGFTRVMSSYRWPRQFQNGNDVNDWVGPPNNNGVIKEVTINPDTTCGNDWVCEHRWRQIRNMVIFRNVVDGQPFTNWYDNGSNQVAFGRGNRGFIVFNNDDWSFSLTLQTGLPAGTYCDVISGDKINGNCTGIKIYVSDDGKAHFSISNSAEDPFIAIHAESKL
Description: (§1) The kinetic studies were carried out based on the above IC50 values. […] A volume of 20 μL was incubated for 15 min at 30 °C using varying concentrations of the inhibitor 5d against α-amylase (0, 5, 25, and 35 μM) and α-glucosidase ([…]) with varying concentrations of inhibitor substrate (starch) in the range 0.3 to 8 mM, whereas concentrations for the inhibitor substrate (p-nitrophenyl-α-D-glucopyranoside, PNPg) were in the range 0.1–1.3 mM, respectively. This was conducted according to the same protocol as previously described, with slight modifications. The type of enzyme inhibition was assessed by preparing Lineweaver–Burk plots of the inverse of the velocities (1/V) versus the inverse of the substrate’s concentration 1/[S] mM^−1, and the change in absorbance was measured spectrophotometrically at 405 nm. The constant of inhibition, Ki, was determined through the secondary plot of the slope versus the inhibitor concentration.

α-glucosidase = α-glucosidase (Homo sapiens, UniProt P10253); assay: enzyme kinetic study, mode of α-glucosidase inhibition (Lineweaver–Burk)
Description: as §1

[1] = molecular target: human lysosomal acid-α-glucosidase (Homo sapiens, UniProt P10253); assay: α-glucosidase inhibition assay; settings: for IC50: mean ± standard error, triplicates
Description: (§2) The inhibitory potential of the synthesized analogs against human pancreatic α-amylase and human lysosomal acid-α-glucosidase enzymes was carried out using the same protocol as described previously with slight modification. […] The percent of inhibition for both enzymes was calculated via the following formula: % inhibition=Abs(blank)−Abs(test compoud)/Abs (blank)×100
(§3) The results were expressed as IC50 (μM), and all the experiments were carried out in triplicates.

[2] = molecular target: T2, human pancreatic α-amylase (Homo sapiens, UniProt P04746); assay: α-amylase inhibition assay; settings: for IC50: mean ± standard error, triplicates
T2 sequence (P04746 16-511): T1 sequence (P04746 16-511)
Description: as §2, §3

[3] = ratio of IC50 values vs acarbose

Structure (SMILES)	mode of α-amylase inhibition (α-amylase; Lineweaver–Burk plot: Vmax unchanged, Km increased)	Ki (α-amylase; estimated from secondary re-plot of Lineweaver–Burk plots, substrate starch, read-out: inhibition constant Ki, α-amylase) [µM]	mode of α-glucosidase inhibition (α-glucosidase; Lineweaver–Burk plot: Km increases, Vmax constant)	Ki (α-glucosidase; estimated from slope vs inhibitor concentration, substrate PNPg, read-out: inhibition constant Ki, α-glucosidase) [µM]	IC50 [1] [µM]	α-glucosidase inhibitory activity, fold higher than that of acarbose [1, 3]	IC50 [2] [µM]	α-amylase inhibitory activity, fold higher than that of acarbose [2, 3]
Cc1cccc(C[C@@H]2C[C@@H]3C(=O)N(C)C4(C[C@H](C)CC[C@H]4C(C)C)N3O2)c1OCC(=O)NNC(=O)Nc1cccc2ccccc12 (stereo partly drawn) [5d, 2-(2-(2-(((2S,2′R,3a’R,5R)-2-isopropyl-5,5′-dimethyl-4′-oxotetrahydro-2′H-spiro[cyclohexane-1,6′-imidazo[1,5-b]isoxazol]-2′-yl)methyl)-6-methylphenoxy)acetyl)-N-(naphthalen-1-yl)hydrazine-1-carboxamide]	competitive	31.9	competitive	89.5	94.33 ± 0.282	8.3 fold and 8.27 fold	53.03 ± 0.106	5.6 fold and 5.59 fold
Cc1cccc(C[C@@H]2C[C@@H]3C(=O)N(C)C4(C[C@H](C)CC[C@H]4C(C)C)N3O2)c1OCC(=O)NNC(=O)Nc1ccc(Cl)c(C(F)(F)F)c1 (stereo partly drawn) [5b, N-(3-trifluoromethyl-4-chlorophenyl)-2-(2-(2-(((2S,2′R,3a’R,5R)-2-isopropyl-5,5′-dimethyl-4′-oxotetrahydro-2′H-spiro[cyclohexane-1,6′-imidazo[1,5-b]isoxazol]-2′-yl)methyl)-6-methylphenoxy)acetyl)hydrazine-1-carboxamide]	–	–	–	–	118.9 ± 0.325	–	67.4 ± 0.202	–
Cc1cccc(C[C@@H]2C[C@@H]3C(=O)N(C)C4(C[C@H](C)CC[C@H]4C(C)C)N3O2)c1OCC(=O)NNC(=O)Nc1cccc(Cl)c1 (stereo partly drawn) [5c, N-(3-chlorophenyl)-2-(2-(2-(((2S,2′R,3a’R,5R)-2-isopropyl-5,5′-dimethyl-4′-oxotetrahydro-2′H-spiro[cyclohexane-1,6′-imidazo[1,5-b]isoxazol]-2′-yl)methyl)-6-methylphenoxy)acetyl)hydrazine-1-carboxamide]	–	–	–	–	120.9 ± 0.333	–	92.28 ± 0.276	–
COc1cc(C[C@@H]2C[C@@H]3C(=O)N(C)C4(C[C@H](C)CC[C@H]4C(C)C)N3O2)ccc1OCC(=O)NNC(=O)Nc1ccc(Br)cc1 (stereo partly drawn) [5f, N-(4-bromophenyl)-2-(2-(4-(((2S,2′R, 3a’R, 5R)-2-isopropyl-5,5′-dimethyl-4′-oxotetrahydro-2′H-spiro[cyclohexane-1,6′-imidazo[1,5-b]isoxazol]-2′-yl)methyl)-2-methoxyphenoxy)acetyl)hydrazine-1-carboxamide]	–	–	–	–	204.6 ± 0.41	–	183.8 ± 0.498	–
COc1cc(C[C@@H]2C[C@@H]3C(=O)N(C)C4(C[C@H](C)CC[C@H]4C(C)C)N3O2)ccc1OCC(=O)NNC(=O)Nc1ccc(F)cc1 (stereo partly drawn) [5g, N-(4-fluorophenyl)-2-(2-(4-(((2S,2′R,3a’R,5R)-2-isopropyl-5,5′-dimethyl-4′-oxotetrahydro-2′H-spiro [cyclohexane-1,6′-imidazo[1,5-b]isoxazol]-2′-yl)methyl)-2-methoxyphenoxy)acetyl)hydrazine-1-carboxamide]	–	–	–	–	170.8 ± 0.358	–	134.8 ± 0.411	–
Cc1cccc(C[C@@H]2C[C@@H]3C(=O)N(C)C4(C[C@H](C)CC[C@H]4C(C)C)N3O2)c1OCC(=O)NNC(=O)Nc1ccc(F)cc1 (stereo partly drawn) [5a, N-(4-fluorophenyl)-2-(2-(2-(((2S,2′R,3a’R,5R)-2-isopropyl-5,5′-dimethyl-4′-oxotetrahydro-2′H-spiro[cyclohexane-1,6′-imidazo[1,5-b]isoxazol]-2′-yl)methyl)-6-methylphenoxy)acetyl)hydrazine-1-carboxamide]	–	–	–	–	152.3 ± 0.367	–	120.3 ± 0.306	–
Cc1cccc(C[C@@H]2C[C@@H]3C(=O)N(C)C4(C[C@H](C)CC[C@H]4C(C)C)N3O2)c1OCC(=O)NNC(=O)Nc1ccc(Cl)cc1 (stereo partly drawn) [5e, N-(4-chlorophenyl)-2-(2-(2-(((2S,2′R,3a’R,5R)-2-isopropyl-5,5′-dimethyl-4′-oxotetrahydro-2′H-spiro[cyclohexane-1,6′-imidazo[1,5-b]isoxazol]-2′-yl)methyl)-6-methylphenoxy)acetyl)hydrazine-1-carboxamide]	–	–	–	–	258.7 ± 0.521	–	232.8 ± 0.517	–
